Results: patent publication US20260130395A1, “Water Dispersible Botanical Compositions” (Aquila Black Limited, priority 2021, published 2026)

Assay: Stability of cannabinoid compounds and Vitamin E components in Beverage 1 (AB White) by LCMSMS
Format: physicochemical
Conditions: for Stability of Plant-Derived Cannabinoid Compounds in AB White, 8° C.: AB White stored at 8° C.; for Stability of Plant-Derived Cannabinoid Compounds in AB White, 21-25° C.: AB White stored at 21-25° C.

In the case of CCCc1cc(O)c2c(c1)OC(C)(C)[C@@H]1CCC(C)=C[C@@H]21 [THCV, delta-9-tetrahydrocannabivarin], the “Stability of Plant-Derived Cannabinoid Compounds in AB White, 8° C.” value (“Stability … 8° C.” below) (0 days) is reported as 3.6 µg/mL, the “Stability … 8° C.” value (1 days) is reported as 3.54 µg/mL and the “Stability … 8° C.” value (2 days) is reported as 3.60 µg/mL. For the same compound, the “Stability … 8° C.” value (3 days) was 3.55 µg/mL, the “Stability … 8° C.” value (5 days) was 3.58 µg/mL and the “Stability … 8° C.” value (8 days) was 3.60 µg/mL. For the same compound, the “Stability … 8° C.” value (9 days) was 3.61 µg/mL, the “Stability … 8° C.” value (10 days) was 3.58 µg/mL and the “Stability … 8° C.” value (11 days) was 3.59 µg/mL. The “Stability … 8° C.” value (12 days) was 3.50 µg/mL, the “Stability … 8° C.” value (15 days) was 3.56 µg/mL and the “Stability … 8° C.” value (16 days) was 3.57 µg/mL. The “Stability … 8° C.” value (17 days) was 3.61 µg/mL, the “Stability … 8° C.” value (18 days) was 3.59 µg/mL and the “Stability … 8° C.” value (19 days) was 3.51 µg/mL. For the same compound, the “Stability … 8° C.” value (22 days) was 3.60 µg/mL, the “Stability … 8° C.” value (23 days) was 3.55 µg/mL and the “Stability … 8° C.” value (24 days) was 3.56 µg/mL. The “Stability … 8° C.” value (25 days) was 3.56 µg/mL, the “Stability … 8° C.” value (26 days) was 3.63 µg/mL and the “Stability … 8° C.” value (29 days) was 3.52 µg/mL. For the same compound, the “Stability … 8° C.” value (30 days) was 3.59 µg/mL, the “Stability … 8° C.” value (60 days) was 3.58 µg/mL and the “Stability … 8° C.” value (90 days) was 3.56 µg/mL. For the same compound, the “Stability … 8° C.” value (120 days) was 3.56 µg/mL, the “Stability … 8° C.” value (150 days) was 3.55 µg/mL and the “Stability … 8° C.” value (180 days) was 3.59 µg/mL. The “Stability … 8° C.” value (210 days) was 3.44 µg/mL, the “Stability … 8° C.” value (240 days) was 3.56 µg/mL and the “Stability … 8° C.” value (270 days) was 3.47 µg/mL. The “Stability … 8° C.” value (300 days) was 3.46 µg/mL, the “Stability … 8° C.” value (330 days) was 3.52 µg/mL and the “Stability … 8° C.” value (360 days) was 3.50 µg/mL. For the same compound, the “Stability … 8° C.” value (390 days) was 3.47 µg/mL, the “Stability … 8° C.” value (420 days) was 3.49 µg/mL and the “Stability … 8° C.” value (450 days) was 3.44 µg/mL. The “Stability … 8° C.” value (480 days) was 3.44 µg/mL, the “Stability … 8° C.” value (510 days) was 3.34 µg/mL and the “Stability … 8° C.” value (540 days) was 3.32 µg/mL. For the same compound, the “Stability … 8° C.” value (570 days) was 3.30 µg/mL, the “Stability of Plant-Derived Cannabinoid Compounds in AB White, 21-25° C.” value (from here on “Stability … 21-25° C.”) (0 days) was 3.6 µg/mL and the “Stability … 21-25° C.” value (1 days) was 3.48 µg/mL. The “Stability … 21-25° C.” value (2 days) was 3.58 µg/mL, the “Stability … 21-25° C.” value (3 days) was 3.54 µg/mL and the “Stability … 21-25° C.” value (5 days) was 3.55 µg/mL. For the same compound, the “Stability … 21-25° C.” value (8 days) was 3.63 µg/mL, the “Stability … 21-25° C.” value (9 days) was 3.55 µg/mL and the “Stability … 21-25° C.” value (10 days) was 3.55 µg/mL. The “Stability … 21-25° C.” value (11 days) was 3.59 µg/mL, the “Stability … 21-25° C.” value (12 days) was 3.47 µg/mL and the “Stability … 21-25° C.” value (15 days) was 3.48 µg/mL. For the same compound, the “Stability … 21-25° C.” value (16 days) was 3.60 µg/mL, the “Stability … 21-25° C.” value (17 days) was 3.51 µg/mL and the “Stability … 21-25° C.” value (18 days) was 3.50 µg/mL. For the same compound, the “Stability … 21-25° C.” value (19 days) was 3.59 µg/mL, the “Stability … 21-25° C.” value (22 days) was 3.52 µg/mL and the “Stability … 21-25° C.” value (23 days) was 3.57 µg/mL. The “Stability … 21-25° C.” value (24 days) was 3.63 µg/mL, the “Stability … 21-25° C.” value (25 days) was 3.54 µg/mL and the “Stability … 21-25° C.” value (26 days) was 3.55 µg/mL. The “Stability … 21-25° C.” value (29 days) was 3.62 µg/mL, the “Stability … 21-25° C.” value (30 days) was 3.48 µg/mL and the “Stability … 21-25° C.” value (60 days) was 3.50 µg/mL. The “Stability … 21-25° C.” value (90 days) was 3.47 µg/mL, the “Stability … 21-25° C.” value (120 days) was 3.45 µg/mL and the “Stability … 21-25° C.” value (150 days) was 3.54 µg/mL. The “Stability … 21-25° C.” value (180 days) was 3.52 µg/mL, the “Stability … 21-25° C.” value (210 days) was 3.40 µg/mL and the “Stability … 21-25° C.” value (240 days) was 3.41 µg/mL. The “Stability … 21-25° C.” value (270 days) was 3.56 µg/mL, the “Stability … 21-25° C.” value (300 days) was 3.52 µg/mL and the “Stability … 21-25° C.” value (330 days) was 3.55 µg/mL. For the same compound, the “Stability … 21-25° C.” value (360 days) was 3.49 µg/mL, the “Stability … 21-25° C.” value (390 days) was 3.40 µg/mL and the “Stability … 21-25° C.” value (420 days) was 3.46 µg/mL. For the same compound, the “Stability … 21-25° C.” value (450 days) was 3.47 µg/mL, the “Stability … 21-25° C.” value (480 days) was 3.30 µg/mL and the “Stability … 21-25° C.” value (510 days) was 3.32 µg/mL. For the same compound, the “Stability … 21-25° C.” value (540 days) was 3.44 µg/mL and the “Stability … 21-25° C.” value (570 days) was 3.30 µg/mL.
